{"source": "patent US20160113931A1", "about": "“Method of treating and/or preventing neurodegenerative diseases” (University of Macau, priority 2014, published 2016)", "key": {"[1]": {"test_system": "zebrafish", "assay": "MPTP-induced dopaminergic neuron loss in zebrafish (TH whole-mount immunostaining)", "format": "in vivo, Danio rerio", "conditions": "positive control, MPTP 48 h", "protocol": "Zebrafish at 1 dpf were exposed to BHDPC (3, 10, 30 μM) with or without MPTP for 48 h. Then fish were fixed for whole mount immunostaining. The morphology change of dopaminergic neurons in zebrafish brain was indicated by immunostaining with antibody against tyrosine hydroxylase (TH). Statistical analysis of TH density was accessed in each 10 fish/group. […] Zebrafish at 1 dpf were exposed to different concentrations of BHDPC with or without MPTP for 48 h. Then fish were fixed for whole mount immunostaining.\n(§1) The AB strain of wild type zebrafish (Danio rerio) was maintained as described in the Zebrafish Handbook. Zebrafish were staged by days post fertilization […]. For breeding, groups of male and female (3:2) adult zebrafish were placed in 10-L plastic aquarium equipped with spawning nets in the evening. In the following morning, eggs were collected from the breeding group tanks. Normally developed fertilized eggs were selected under a stereomicroscope for further studies. The MPTP manipulation was performed with appropriate safety precautions and all MPTP-containing water was bleached.\nWhole-mount immunostaining in zebrafish was performed as previously described. 3 dpf Zebrafish larvae were fixed with 4% paraformaldehyde in PBS for 30 min, […] (TH) staining was performed as previously described. Briefly, zebrafish were fixed in 4% paraformaldehyde in PBS for 5 h. Fixed samples were blocked (2% lamb serum and 0.1% BSA in PBST) for 1 h at room temperature. A mouse monoclonal anti-tyrosine hydroxylase (TH) antibody (Millipore, Billerica, MD, USA) was used as the primary antibody and incubated with samples overnight at 4° C. On the next day, samples were washed six times with PBST (each wash lasted 30 min), followed by incubation with Alexa Fluor® 488 goat anti-mouse antibodies. After immunostaining, zebrafish were mounted with 3.5% methylcellulose and photographed. Semi-quantification of the area of TH^+ cells was assessed by an investigator, unaware of the drug treatment, using Image-J software. Results are expressed as percentage of area of TH^+ cells in untreated normal control groups.\nIn this example, the in vivo animal model was used to determine the neuroprotective effect of BHDPC. Anti-tyrosine hydroxylase (TH) whole mount immunostaining was used to determine dopaminergic neuronal populations in zebrafish larvae (FIG. 15A). TH activity is the key enzyme responsible for dopamine biosynthesis in the CNS. […] The dopamine reuptake inhibitor nomifensine (Nom), which protected against MPTP-induced neurotoxicity in vivo was used as a positive control. The treatment of larvae with 30 μM of nomifensine, a positive control drug attenuated MPTP-induced neurotoxicity, with TH^+ density […] by 30% compared to the MPTP group.\nL-deprenyl, which is a substituted phenethylamine used in treatment of early Parkinson's disease, was used as a positive control."}, "[2]": {"test_system": "zebrafish", "assay": "MPTP-induced deficit of locomotion behavior in zebrafish larvae", "format": "in vivo, Danio rerio", "conditions": "150 μM L-dopa with MPTP, positive control", "protocol": "Three dpf zebrafish embryos were co-incubated with 10 μM MPTP and BHDPC at the indicated concentrations for 96 hours, and zebrafish larval co-treated with MPTP and 150 μM L-dopa was used as positive control. After treatment, zebrafish were collected to perform locomotion behavior test using Viewpoint Zebrabox system and total distances travelled in 10 min were calculated.\nas §1\nIn addition, MPTP markedly altered the swimming behavior of the zebrafish as a consequence of DA neuronal injury. […] BHDPC ameliorated MPTP-induced deficit of swimming behavior. At the same condition, MPTP-induced deficit of swimming behavior were rescued by positive controls, levodopa (L-dopa) (FIG. 16)."}}}
{"smiles": "C#CCN(C)[C@H](C)Cc1ccccc1", "note": "[L-deprenyl, reference compound]", "values": [{"measurement": "TH+ density compared to the MPTP group (FIG. 15B)", "setting": "[1]", "result": "significant increase"}]}
{"smiles": "N[C@@H](Cc1ccc(O)c(O)c1)C(=O)O", "note": "[levodopa, reference compound]", "values": [{"measurement": "MPTP-induced deficit of swimming behavior (total distance travelled in 10 min)", "setting": "[2]", "result": "rescued"}]}
{"smiles": "CN1Cc2c(N)cccc2C(c2ccccc2)C1", "note": "(stereo not drawn) [nomifensine, reference compound]", "values": [{"measurement": "TH+ density reduced by, compared to the MPTP group", "setting": "[1]; 30 μM nomifensine", "result": 30, "unit": "%"}]}
